Test results: US4085134A, “Amino-phosphonic-sulfonic acids” (Petrolite Corporation, priority 1974, dated 1978)
Structures can show the parent of a compound that is named as a salt.

Assays:
[1] = Calcium Scale Inhibition Test; conditions: 180° F, samples at 2 and 4 hour periods
Description: Calcium Scale Inhibition Test
The procedure utilized to determine the effectiveness of scale inhibitors in regard to calcium scale is as follows:
Several 50 ml. samples of a 0.04 sodium bicarbonate solution are placed in 100 ml. bottles. To these solutions is added the inhibitor in various known concentrations. 50 ml. samples of a 0.02 M CaCl2 solution are then added.
A total hardness determination is then made on the 50-50 mixture utilizing the well known Schwarzenbach titration. The samples are placed in a water bath and heated at 180° F. 10 ml. samples are taken from each bottle at 2 and 4 hour periods. These samples are filtered through millipore filters and the total hardness of the filtrates are determined by titration.

[2] = powerful sequesterants; background statement; cited from earlier work

Compound	% Inhibition (calcium scale inhibition) ([1]; 100 ppm) [%]	% Inhibition (calcium scale inhibition) ([1]; 50 ppm) [%]	% Inhibition (calcium scale inhibition) ([1]; 10 ppm) [%]	also measured
O=P(O)(O)CN(CCCS(=O)(=O)O)C1CCCCC1 [Example 1]	86	–	–	–
CCCCCCCCN(CCCS(=O)(=O)O)CP(=O)(O)O [Example 4]	24	–	–	% Inhibition (calcium scale inhibition) ([1]; 200 ppm): 60%
O=P(O)(O)CN(CCCS(=O)(=O)O)CCN(CCCS(=O)(=O)O)CP(=O)(O)O [Example 11]	100	95	–	–
O=P(O)(O)CN(CCCS(=O)(=O)O)CCN(CCN(CP(=O)(O)O)CP(=O)(O)O)CP(=O)(O)O [Example 14]	100	–	66	–
O=P(O)(O)CN(CCCS(=O)(=O)O)CCN(CCN(CCCS(=O)(=O)O)CP(=O)(O)O)CP(=O)(O)O [Example 15]	–	95	42	–
O=C(O)CN(CCN(CC(=O)O)CC(=O)O)CC(=O)O [ethylenediamine tetracetic acid salts, ethylenediamine tetracetic acid]	–	–	–	threshold activities [2]: no threshold activities
